Columns and labels:
[1] = biological target: ErbB2 with Exon 20 YVMA insertion (HER2-YVMA) (Homo sapiens (Human), UniProt P04626, INS775YVMA); assay: Cellular phosphorylation assay, constitutive ErbB2 phosphorylation (Y1196) in engineered NIH 3T3 cells, Assay 4; format: cell-based
Method in brief: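 In-cell Western in NIH 3T3 cells carrying ErbB2 exon 20 YVMA insertion, with no ligand stimulation. One hour compound exposure at 37 °C before fixation and anti-pY1196 plus GAPDH staining with dual-wavelength fluorescence. IC50 derived after GAPDH normalization.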

[2] = biological target: ErbB2 insYVMA (HER2-YVMA, SEQ ID NO: 2) (Homo sapiens, UniProt P04626, INS775YVMA/P1170A); assay: biochemical; settings: ErbB2 insYVMA enzyme assay; read-out: Assay 1 IC50
[3] = biological target: EGFR (Homo sapiens (Human), UniProt P00533); assay: ErbB enzyme assay (CisBio HTRF KinEASE-TK), Assay 3; format: biochemical
Method in brief: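 IC50 was taken where a 4-parameter logistic fit crossed 50 percent of control (DMSO 100, pre-quenched 0), read by ratiometric HTRF. Reactions ran 30 min at 22 °C with 1 mM ATP and 250 nM TK-substrate biotin in pH 7.4 HEPES buffer with MgCl2, Triton X-100 and 2% DMSO.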

[4] = biological target: EGFR wild type (EGFR WT) (Homo sapiens (Human), UniProt P00533); assay: Cellular phosphorylation assay, EGF-stimulated EGFR phosphorylation in engineered NIH 3T3 cells, Phospho-EGFR DuoSet IC ELISA, Assay 5; format: cell-based
Method in brief: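 Phospho-EGFR ELISA on lysates of engineered NIH 3T3 EGFR WT cells, IC50 derived from concentration curves. Cells plated at 20,000/well overnight, given compound dilutions 1 h at 37 °C, then rEGF 100 ng/ml for a further 10 min before lysis.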

[5] = biological target: ErbB2 WT (Homo sapiens (Human), UniProt P04626); assay: ErbB enzyme assay (CisBio HTRF KinEASE-TK), Assay 2; format: biochemical
Method in brief: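 Readout is HTRF KinEASE-TK, using Sa-XL665 and cryptate antibody for 1 h at 22 °C, as percent of control between DMSO-only (100) and pre-quenched (0) reactions. The kinase reaction runs 30 min at 22 °C with 1 mM ATP and 250 nM biotinylated TK substrate, in HEPES pH 7.4 with MgCl2 and 2% DMSO.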

[6] = biological target: MDR1 (P-gp) (Homo sapiens (Human), UniProt P08183); assay: MDR1 transfected LLC-PK1 permeability/efflux, Assay 6; settings: pig
Method: Both MDR1 transfected LLC-PK1 (Assay 6) and MDR1 transfected MDCKII canine Mdr1 knockout cells (Assay 7) were cultured and plated according to manufacturer's recommendations with the exception that the passage media for the MDR1 transfected LLC-PK1 cell line contained only 2% fetal bovine serum so as to extend passage time out to seven days.
Both positive and negative controls were used to assess functionality of P-gp or BCRP efflux in the assays. Stock solutions for assay controls and the test article were prepared in DMSO for final test concentration of 1 μM. Final organic concentration in the assay was 1%. All dosing solutions contained 10 μM lucifer yellow to monitor MDCKII cell monolayer integrity.
For the apical to basolateral determination (A to B), 75 μL of the test article in transport buffer were added to the apical side of the individual transwells and 250 μL of basolateral media, without compound or lucifer yellow, were added to each well. For the basolateral to apical determination (B to A), 250 μL of test article in transport buffer were added to each well and 75 μL transport buffer, without compound or lucifer yellow, were added to each transwell. All tests were performed in triplicate, and each compound was tested for both apical to basolateral and basolateral to apical transport. The plates were incubated for 2 hours on a Lab-Line Instruments Titer Orbital Shaker (VWR, West Chester, PA) at 50 rpm and 37° C. with 5% CO2. All culture plates were removed from the incubator, 50 μL of media were removed from the apical and basolateral portion of each well, and added to 150 μL of 1 μM labetalol in 2:1 acetonitrile (ACN): H2O, v/v.
The plates were read using a Molecular Devices (Sunnyvale, CA) Gemini Fluorometer to evaluate the lucifer yellow concentrations at excitation/emission wavelengths of 425/535 nm. These values were accepted when found to be below 2% for apical to basolateral and 5% basolateral to apical flux across the MDR1-transfected LLC-PK1 or BCRP-transfected MDCKII cell monolayers. The plates were sealed, and the contents of each well analyzed by LC MS/MS. The compound concentrations were determined from the ratio of the peak areas of the compound to the internal standard (labetalol) in comparison to the dosing solution.
A MDS Sciex API 4000 (Applied Biosystems, Foster City, CA) mass spectrometer was used for detection of the analytes in the ion spray positive mode. Analyte responses were measured by multiple reaction monitoring (“MRM”) of transitions unique to each compound (the protonated precursor ion and selected product ions for each test article and m/z 329 to m/z 162 for labetalol, the internal standard.
The total run time, including re-equilibration, for a single injection was 1.2 minutes. […] The total run time, including re-equilibration, for a single injection was 0.61 minutes.
An efflux ratio is calculated from the mean apical to basolateral (A-B) Papp data and basolateral to apical (B-A) Papp data: Efflux ratio=Papp(B−A)/Papp(A−B)

[7] = LLC-PK1, Assay 6 Pe Ratio, efflux ratio Papp(B-A)/Papp(A-B), MDR1 transfected LLC-PK1

Sequence of ErbB2 insYVMA (HER2-YVMA, SEQ ID NO: 2) (P04626 with tags, fused parts or gaps INS775YVMA/P1170A limits assumed): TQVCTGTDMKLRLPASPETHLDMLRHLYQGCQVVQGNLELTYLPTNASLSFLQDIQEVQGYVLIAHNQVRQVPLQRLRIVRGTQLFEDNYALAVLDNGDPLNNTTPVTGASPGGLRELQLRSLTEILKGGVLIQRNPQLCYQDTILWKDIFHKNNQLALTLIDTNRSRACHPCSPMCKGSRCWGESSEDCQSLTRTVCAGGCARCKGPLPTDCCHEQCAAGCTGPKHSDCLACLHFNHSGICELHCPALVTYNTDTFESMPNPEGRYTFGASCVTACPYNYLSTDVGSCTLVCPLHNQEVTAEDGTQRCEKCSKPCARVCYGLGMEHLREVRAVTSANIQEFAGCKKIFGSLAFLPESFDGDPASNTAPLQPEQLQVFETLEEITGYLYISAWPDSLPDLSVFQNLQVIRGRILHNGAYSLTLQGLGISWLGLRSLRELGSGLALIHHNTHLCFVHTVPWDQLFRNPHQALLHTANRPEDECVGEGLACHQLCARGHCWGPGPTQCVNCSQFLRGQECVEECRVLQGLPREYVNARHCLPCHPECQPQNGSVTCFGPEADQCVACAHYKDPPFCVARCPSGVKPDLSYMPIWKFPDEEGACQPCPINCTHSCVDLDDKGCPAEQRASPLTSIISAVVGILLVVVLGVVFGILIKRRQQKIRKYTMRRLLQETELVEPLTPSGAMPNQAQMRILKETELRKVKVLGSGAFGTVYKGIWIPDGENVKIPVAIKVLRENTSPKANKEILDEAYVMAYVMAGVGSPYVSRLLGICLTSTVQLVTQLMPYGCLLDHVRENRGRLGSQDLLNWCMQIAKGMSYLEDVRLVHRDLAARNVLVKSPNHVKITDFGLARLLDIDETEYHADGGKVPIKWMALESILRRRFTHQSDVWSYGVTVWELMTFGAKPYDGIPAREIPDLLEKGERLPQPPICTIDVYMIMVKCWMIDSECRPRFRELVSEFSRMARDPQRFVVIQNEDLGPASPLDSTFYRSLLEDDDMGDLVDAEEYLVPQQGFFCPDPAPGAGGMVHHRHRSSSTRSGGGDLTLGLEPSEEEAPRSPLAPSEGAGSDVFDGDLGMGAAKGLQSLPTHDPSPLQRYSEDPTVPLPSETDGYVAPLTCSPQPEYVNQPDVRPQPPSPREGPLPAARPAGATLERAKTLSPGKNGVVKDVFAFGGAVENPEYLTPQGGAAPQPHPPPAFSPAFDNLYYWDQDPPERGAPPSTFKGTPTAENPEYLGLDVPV
Sequence of EGFR (P00533 25-1210): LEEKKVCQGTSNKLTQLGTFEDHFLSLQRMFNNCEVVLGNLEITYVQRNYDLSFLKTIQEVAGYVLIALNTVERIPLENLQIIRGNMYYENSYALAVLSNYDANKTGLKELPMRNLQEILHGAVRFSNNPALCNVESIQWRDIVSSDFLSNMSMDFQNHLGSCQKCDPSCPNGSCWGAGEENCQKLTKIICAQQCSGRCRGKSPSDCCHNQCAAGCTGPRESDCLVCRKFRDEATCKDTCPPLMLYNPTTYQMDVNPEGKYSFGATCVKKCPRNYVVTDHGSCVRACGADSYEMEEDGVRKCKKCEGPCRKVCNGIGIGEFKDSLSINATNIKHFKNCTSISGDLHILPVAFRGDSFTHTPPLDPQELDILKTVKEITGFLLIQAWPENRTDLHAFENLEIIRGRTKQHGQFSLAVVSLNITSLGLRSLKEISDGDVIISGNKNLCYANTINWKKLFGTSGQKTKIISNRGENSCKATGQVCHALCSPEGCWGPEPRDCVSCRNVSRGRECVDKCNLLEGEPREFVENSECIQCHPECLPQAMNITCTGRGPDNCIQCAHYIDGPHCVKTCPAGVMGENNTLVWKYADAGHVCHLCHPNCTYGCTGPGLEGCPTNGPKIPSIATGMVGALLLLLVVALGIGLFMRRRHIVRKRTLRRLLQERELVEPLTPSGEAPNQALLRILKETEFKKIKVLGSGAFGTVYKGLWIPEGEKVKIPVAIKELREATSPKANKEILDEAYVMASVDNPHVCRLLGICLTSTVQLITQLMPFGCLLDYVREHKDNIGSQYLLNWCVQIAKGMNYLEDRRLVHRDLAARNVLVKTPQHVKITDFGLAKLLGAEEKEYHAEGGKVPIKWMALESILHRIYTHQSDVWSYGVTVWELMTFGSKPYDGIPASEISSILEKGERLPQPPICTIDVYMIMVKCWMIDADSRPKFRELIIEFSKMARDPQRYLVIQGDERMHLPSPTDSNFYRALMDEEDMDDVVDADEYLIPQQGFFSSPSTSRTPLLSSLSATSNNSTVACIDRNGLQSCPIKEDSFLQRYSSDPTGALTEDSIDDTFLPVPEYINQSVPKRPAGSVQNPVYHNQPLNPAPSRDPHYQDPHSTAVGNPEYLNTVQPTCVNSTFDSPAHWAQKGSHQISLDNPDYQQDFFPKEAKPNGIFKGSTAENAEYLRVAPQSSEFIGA
Sequence of EGFR wild type (EGFR WT) (P00533 25-1210): as above
Sequence of MDR1 (P-gp) (P08183 whole entry): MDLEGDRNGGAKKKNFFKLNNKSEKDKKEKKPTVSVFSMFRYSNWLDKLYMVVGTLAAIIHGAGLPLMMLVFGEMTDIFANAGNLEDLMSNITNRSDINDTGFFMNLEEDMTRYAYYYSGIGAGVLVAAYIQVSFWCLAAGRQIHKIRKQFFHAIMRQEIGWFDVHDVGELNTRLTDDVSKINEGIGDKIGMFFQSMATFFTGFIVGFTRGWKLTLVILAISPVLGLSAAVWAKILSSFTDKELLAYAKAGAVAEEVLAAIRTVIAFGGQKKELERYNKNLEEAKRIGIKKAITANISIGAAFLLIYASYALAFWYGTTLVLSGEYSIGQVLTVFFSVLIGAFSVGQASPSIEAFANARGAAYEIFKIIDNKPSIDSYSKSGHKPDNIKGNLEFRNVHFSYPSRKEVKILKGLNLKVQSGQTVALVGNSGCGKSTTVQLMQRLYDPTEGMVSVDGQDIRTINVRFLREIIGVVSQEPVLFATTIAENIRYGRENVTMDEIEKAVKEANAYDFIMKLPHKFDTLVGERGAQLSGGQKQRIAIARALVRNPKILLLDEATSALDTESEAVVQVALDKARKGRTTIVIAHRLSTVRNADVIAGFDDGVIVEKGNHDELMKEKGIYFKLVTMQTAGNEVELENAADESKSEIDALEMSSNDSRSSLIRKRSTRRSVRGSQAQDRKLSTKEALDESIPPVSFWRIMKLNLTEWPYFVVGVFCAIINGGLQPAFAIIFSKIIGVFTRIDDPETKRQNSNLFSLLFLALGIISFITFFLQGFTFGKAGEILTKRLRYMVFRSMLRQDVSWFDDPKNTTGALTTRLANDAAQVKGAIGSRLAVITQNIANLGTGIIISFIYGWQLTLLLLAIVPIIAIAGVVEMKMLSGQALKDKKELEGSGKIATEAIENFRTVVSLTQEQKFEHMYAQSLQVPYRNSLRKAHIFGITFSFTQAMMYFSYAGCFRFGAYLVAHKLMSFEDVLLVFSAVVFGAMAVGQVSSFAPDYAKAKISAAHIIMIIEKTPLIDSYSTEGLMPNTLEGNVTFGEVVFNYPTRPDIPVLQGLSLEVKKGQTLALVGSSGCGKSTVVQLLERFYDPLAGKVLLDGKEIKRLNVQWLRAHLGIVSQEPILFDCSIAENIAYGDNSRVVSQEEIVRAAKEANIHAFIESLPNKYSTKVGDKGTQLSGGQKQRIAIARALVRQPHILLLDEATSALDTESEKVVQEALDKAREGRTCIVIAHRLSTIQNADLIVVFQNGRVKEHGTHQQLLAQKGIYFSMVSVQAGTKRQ

Row | SMILES | IC50 [1] [nM] | IC50 [2] [nM] | IC50 [3] [nM] | IC50 [4] [nM] | IC50 [5] [nM] | efflux ratio at 2 h, 1 μM [6, 7] | efflux ratio at 2 h, 1 μM ([6]; LLC-PK1)
1 | CCNc1ncc2ncnc(Nc3ccc(Oc4ccc5c(ccn5C)c4)c(C)c3)c2n1 [Example 269] | 20.7 | 12.1 | 2400 | ≥ 5000 | 16.7 | 2.4 | –
2 | Cc1cc(Nc2ncnc3cnc(N4CCCC4=O)nc23)ccc1Oc1ccc2c(c1)ncn2C [Example 34, 1-(8-((3-methyl-4-((1-methyl-1H-benzo[d]imidazol-5-yl)oxy)phenyl)amino)pyrimido[5,4-d]pyrimidin-2-yl)pyrrolidin-2-one] | 30.5 | 124 | ≥ 10000 | ≥ 5000 | 307 | 6.3 | –
3 | Cc1cc(Nc2ncnc3cnc(N4CC5(CC5)CO4)nc23)ccc1Oc1ccc2c(c1)ncn2C [Example 187, N-(3-methyl-4-((1-methyl-1H-benzo[d]imidazol-5-yl)oxy)phenyl)-6-(5-oxa-6-azaspiro[2.4]heptan-6-yl)pyrimido[5,4-d]pyrimidin-4-amine] | 14.3 | 38.4 | ≥ 10000 | ≥ 5000 | 109 | – | 2.7
4 | Cc1cc(Nc2ncnc3cnc(N[C@H]4CN(C)C[C@H]4F)nc23)ccc1Oc1ccc2c(c1)ncn2C [Example 279] | 1.2 | 25 | 4090 | ≥ 5000 | 50.6 | 16.6 | –
5 | Cc1cc(Nc2ncnc3cnc(N4CC[C@H](S(C)(=O)=O)C4)nc23)ccc1Oc1ccc2c(c1)ncn2C [Example 119, (S)—N-(3-methyl-4-((1-methyl-1H-benzo[d]imidazol-5-yl)oxy)phenyl)-6-(3-(methylsulfonyl)pyrrolidin-1-yl)pyrimido[5,4-d]pyrimidin-4-amine] | 24.7 | 26.8 | 9320 | ≥ 5000 | 30.7 | 29.6 | –
6 | Cc1cc(Nc2ncnc3cnc(NC4COC4)nc23)ccc1Oc1ccc2c(c1)ncn2C [Example 259] | 19.6 | 29.7 | ≥ 10000 | ≥ 5000 | 45.3 | 8.8 | –
7 | Cc1cc(Nc2ncnc3cnc(N4C[C@H]5CCCN5C4=O)nc23)ccc1Oc1ccc2c(c1)ncn2C [Example 66, (R)-2-(8-((3-methyl-4-((1-methyl-1H-benzo[d]imidazol-5-yl)oxy)phenyl)amino)pyrimido[5,4-d]pyrimidin-2-yl)hexahydro-3H-pyrrolo[1,2-c]imidazol-3-one] | 41.4 | 53.9 | ≥ 10000 | ≥ 5000 | 180 | 11.6 | –
8 | Cc1cc(Nc2ncnc3cnc(N4CC(CS(C)(=O)=O)C4)nc23)ccc1Oc1ccc2c(c1)ncn2C [Example 232] | 39.6 | 15.3 | 6410 | ≥ 5000 | 12.4 | 31.3 | –
9 | Cc1cc(Nc2ncnc3cnc(N(C)CC4(O)CC4)nc23)ccc1Oc1ccc2c(c1)ncn2C [Example 166, 1-((methyl(8-((3-methyl-4-((1-methyl-1H-benzo[d]imidazol-5-yl)oxy)phenyl)amino)pyrimido[5,4-d]pyrimidin-2-yl)amino)methyl)cyclopropan-1-ol] | 3 | 16.1 | ≥ 10000 | ≥ 5000 | 39.7 | 4.6 | –
10 | Cc1cc(Nc2ncnc3cnc(N[C@H]4CCOC4)nc23)ccc1Oc1ccc2c(c1)ncn2C [Example 17, (S)—N8-(3-methyl-4-((1-methyl-1H-benzo[d]imidazol-5-yl)oxy)phenyl)-N2-(tetrahydrofuran-3-yl)pyrimido[5,4-d]pyrimidine-2,8-diamine] | 9.2 | 7 | 2350 | ≥ 5000 | 6 | 6.6 | –
11 | CNc1ncc2ncnc(Nc3ccc(Oc4ccc5scnc5c4)c(C)c3)c2n1 [Example 50, N8-(4-(benzo[d]thiazol-5-yloxy)-3-methylphenyl)-N2-methylpyrimido[5,4-d]pyrimidine-2,8-diamine 2,2,2-trifluoroacetate] | 93.6 | 4.8 | 363 | ≥ 5000 | 11.4 | 1.2 | –
12 | Cc1cc(Nc2ncnc3cnc(N4CC[C@H](C(C)(C)O)C4)nc23)ccc1Oc1ccc2c(c1)ncn2C [Example 126, (S)-2-(1-(8-((3-methyl-4-((1-methyl-1H-benzo[d]imidazol-5-yl)oxy)phenyl)amino)pyrimido[5,4-d]pyrimidin-2-yl)pyrrolidin-3-yl)propan-2-ol] | 14.3 | 15.5 | ≥ 10000 | ≥ 5000 | 18.3 | 3.8 | –
13 | Cc1cc(Nc2ncnc3cnc(-c4cscn4)nc23)ccc1Oc1ccc2c(c1)ncn2C [Example 235] | 5.6 | 74.5 | ≥ 10000 | ≥ 5000 | 54.1 | 2.9 | –
14 | Cc1cc(Nc2ncnc3cnc(N(C)CCO)nc23)ccc1Oc1ccc2c(c1)ncn2C [Example 208, 2-(methyl(8-((3-methyl-4-((1-methyl-1H-benzo[d]imidazol-5-yl)oxy)phenyl)amino)pyrimido[5,4-d]pyrimidin-2-yl)amino)ethan-1-ol] | 6 | 17.3 | 3550 | ≥ 5000 | – | 11.2 | –
15 | Cc1cc(Nc2ncnc3cnc(NCC(F)F)nc23)ccc1Oc1ccc2c(c1)ncn2C [Example 251] | 6.6 | 11.7 | 1800 | ≥ 5000 | 21.2 | 2.3 | –
16 | Cc1cc(Nc2ncnc3cnc(N4CCCC45COC5)nc23)ccc1Oc1ccc2c(c1)ncn2C [Example 230] | 15.7 | 25.8 | 8560 | ≥ 5000 | 29.2 | 2.5 | –
17 | Cc1cc(Nc2ncnc3cnc(NOCC(C)(C)O)nc23)ccc1Oc1ccc2c(c1)ncn2C [Example 217, 2-methyl-1-(((8-((3-methyl-4-((1-methyl-1H-benzo[d]imidazol-5-yl)oxy)phenyl)amino)pyrimido[5,4-d]pyrimidin-2-yl)amino)oxy)propan-2-ol] | 35.1 | 23.2 | – | ≥ 5000 | 53.3 | 6 | –
18 | Cc1cc(Nc2ncnc3cnc(NCC(C)(C)C#N)nc23)ccc1Oc1ccc2c(c1)ncn2C [Example 200, 2,2-dimethyl-3-((8-((3-methyl-4-((1-methyl-1H-benzo[d]imidazol-5-yl)oxy)phenyl)amino)pyrimido[5,4-d]pyrimidin-2-yl)amino)propanenitrile] | 14.9 | 18.6 | ≥ 10000 | 4520 | 52.6 | 8.1 | –
19 | Cc1cc(Nc2ncnc3cnc(N4CCOC5CC54)nc23)ccc1Oc1ccc2c(c1)ncn2C (racemic) [Example 60, 6-(2-oxa-5-azabicyclo[4.1.0]heptan-5-yl)-N-(3-methyl-4-((1-methyl-1H-benzo[d]imidazol-5-yl)oxy)phenyl)pyrimido[5,4-d]pyrimidin-4-amine] | 8.5 | 19.4 | 8860 | ≥ 5000 | 27.6 | 2.6 | –
20 | Cc1cc(Nc2ncnc3cnc(N4CCN(C)[C@@H](C)C4)nc23)ccc1Oc1ccc2c(c1)ncn2C [Example 280] | 14.7 | 38.2 | ≥ 10000 | ≥ 5000 | 78.2 | 4 | –
21 | Cc1cc(Nc2ncnc3cnc(N4CC(C)(O)CO4)nc23)ccc1Oc1ccc2c(c1)ncn2C (centres unmarked) [Example 191, 4-methyl-2-(8-((3-methyl-4-((1-methyl-1H-benzo[d]imidazol-5-yl)oxy)phenyl)amino)pyrimido[5,4-d]pyrimidin-2-yl)isoxazolidin-4-ol] | 36.4 | 33 | ≥ 10000 | ≥ 5000 | – | 36.5 | –
22 | Cc1cc(Nc2ncnc3cnc(N(C)C[C@@H](C)O)nc23)ccc1Oc1ccc2c(c1)ncn2C [Example 189, (R)-1-(methyl(8-((3-methyl-4-((1-methyl-1H-benzo[d]imidazol-5-yl)oxy)phenyl)amino)pyrimido[5,4-d]pyrimidin-2-yl)amino)propan-2-ol] | 13.9 | 12.7 | 6460 | ≥ 5000 | – | 4.2 | –

— US11834453B2, “Substituted pyrimido[5,4-d]pyrimidines as HER2 inhibitors” (Array BioPharma Inc., priority 2020, dated 2023)
